Patent US10980232B2, “Herbicidal composition comprising cinmethylin and pyroxasulfone” (BASF Agro B.V., priority 2015, dated 2021)

Columns and labels:
Assay type in all cases: in vivo
[1] = system: POLCO (Polygonum convolvulus); assay: Greenhouse postemergence herbicidal activity, POLCO; details: pyroxasulfone solo 45 g ai/ha, 20 DAT
Description: (§1) The test plants have been seeded, separately for each species, in plastic containers in sandy loamy soil containing 5% of organic matter.
(§2) For the post emergence treatment, the plants were first grown to the 2 leaf station (GS 12). Here, the herbicidal compositions were suspended or emulsified in water as distribution medium and sprayed using finely distributing nozzels.
(§3) The plants have been cultivated due to their individual requirements at 10-25° C. and 20-35° C. The plants were irrigated due to their necessity.
(§4) The racemic mixture (±)-2-exo-(2-Methylbenzyloxy)-1-methyl-4-isopropyl-7-oxabicyclo[2.2.1]heptane was used as herbicide A and formulated as emulsifiable concentrates with an active ingredient concentration of 50 g/l, 100 g/l or 750 g/l respectively.
(§5) Pyroxasulfone (herbicide B) was used as a water dispersible granule (85% WG).
(§6) In the following experiments, the herbicidal activity for the individual herbicidal compositions (solo and mixture applications) was assessed 20 days after treatment (DAT). […]
(§7) The value E corresponds to the effect (plant damage or injury) which is to be expected if the activity of the individual compounds is additive. If the observed effect is higher than the value E calculated according to the Colby equation, a synergistic effect is present.

GALAP (Galium aparine) = assay: Greenhouse preemergence herbicidal activity, GALAP; details: 20 DAT
Description: as §1
(§8) The containers were irrigated gently to promote germination and growth and subsequently covered with transparent plastic hoods until the plants had rooted.
as §3, §4, §5
(§9) In the following experiments, the herbicidal activity for the individual herbicidal compositions (solo and mixture applications) was assessed 20 days after treatment (DAT).
(§10) The evaluation for the damage on undesired weeds caused by the chemical compositions was carried out using a scale from 0 to 100%, compared to the untreated control plants. Here, 0 means no damage and 100 means complete destruction of the plants.
(§11) E=X+Y−(X·Y/100) where X=effect in percent using herbicide A at an application rate a; • Y=effect in percent using herbicide B at application rate b; • E=expected effect (in %) of herbicide A+herbicide B at application rates a+b.
as §7

[2] = system: AMARE (Amaranthus retroflexus); assay: Greenhouse preemergence herbicidal activity, AMARE; details: pyroxasulfone solo 10 g ai/ha, 20 DAT
Description: as §1, §8, §3, §4, §5, §9
The evaluation for the damage on undesired weeds caused by the chemical compositions was carried out using a scale from 0 to 100%, compared to the untreated control plants. […]
as §7

[3] = system: POLCO (Polygonum convolvulus); assay: Greenhouse preemergence herbicidal activity, POLCO; details: 20 DAT
Description: as §1, §8, §3, §4, §5, §9, §10, §11, §7

STEME (Stellaria media) [4] = assay: Greenhouse preemergence herbicidal activity, STEME; details: 20 DAT
Description: as §1, §8, §3, §4, §5, §9, §10, §11, §7

AVEFA (Avena fatua) [5] = assay: Greenhouse preemergence herbicidal activity, AVEFA; details: 20 DAT
Description: as §1, §8, §3, §4, §5, §9, §10, §11, §7

[6] = system: CHEAL (Chenopodium album); assay: Greenhouse preemergence herbicidal activity, CHEAL; details: 20 DAT
Description: as §1, §8, §3, §4, §5, §9, §10, §11, §7

AVEFA (Avena fatua) [7] = assay: Greenhouse postemergence herbicidal activity, AVEFA; details: 20 DAT
Description: as §1, §2, §3, §4, §5, §9, §10, §11, §7

[8] = system: ANTAR (Anthemis arvensis); assay: Greenhouse postemergence herbicidal activity, ANTAR; details: 20 DAT
Description: as §1, §2, §3, §4, §5, §9, §10, §11, §7

[9] = system: SORHA (Sorghum halepense); assay: Greenhouse postemergence herbicidal activity, SORHA; details: pyroxasulfone solo 11.25 g ai/ha, 20 DAT
Description: as §1, §2, §3, §4, §5, §6, §7

[10] = system: CHEAL (Chenopodium album); assay: Greenhouse postemergence herbicidal activity, CHEAL; details: 20 DAT
Description: as §1, §2, §3, §4, §5, §9, §10, §11, §7

[11] = system: GERDI (Geranium dissectum); assay: Greenhouse preemergence herbicidal activity, GERDI; details: 20 DAT
Description: as §1, §8, §3, §4, §5, §9, §10, §11, §7

[12] = system: LOLMU (Lolium multiflorum); assay: Greenhouse postemergence herbicidal activity, LOLMU; details: 20 DAT
Description: as §1, §2, §3, §4, §5, §9, §10, §11, §7

[13] = system: LOLMU (Lolium multiflorum); assay: Greenhouse preemergence herbicidal activity, LOLMU; details: 20 DAT
Description: as §1, §8, §3, §4, §5, §9, §10, §11, §7

[14] = system: AMARE (Amaranthus retroflexus); assay: Greenhouse postemergence herbicidal activity, AMARE; details: pyroxasulfone solo 45 g ai/ha, 20 DAT
Description: as §1, §2, §3, §4, §5, §6, §7

[15] = system: ANTAR (Anthemis arvensis); assay: Greenhouse preemergence herbicidal activity, ANTAR; details: 20 DAT
Description: as §1, §8, §3, §4, §5, §9, §10, §11, §7

STEME (Stellaria media) [16] = assay: Greenhouse postemergence herbicidal activity, STEME; details: 20 DAT
Description: as §1, §2, §3, §4, §5, §9, §10, §11, §7

[17] = system: ABUTH (Abutilon theoprasti); assay: Greenhouse preemergence herbicidal activity, ABUTH; details: 20 DAT
Description: as §1, §8, §3, §4, §5, §9, §10, §11, §7

[18] = pyroxasulfone solo 11.25 g ai/ha
[19] = pyroxasulfone solo 22.5 g ai/ha

Compound: Cn1nc(C(F)(F)F)c(CS(=O)(=O)C2=NOC(C)(C)C2)c1OC(F)F [pyroxasulfone, 3-[5-(difluoromethoxy)-1-methyl-3-(trifluoromethyl)pyrazol-4-ylmethylsulfonyl]-4,5-dihydro-5,5-dimethyl-1,2-oxazole]
- herbicidal activity [1]: 80%
- herbicidal activity (GALAP (Galium aparine); pyroxasulfone solo 10 g ai/ha): 30%
- herbicidal activity (GALAP (Galium aparine); pyroxasulfone solo 15 g ai/ha): 0%
- herbicidal activity (GALAP (Galium aparine); pyroxasulfone solo 20 g ai/ha): 70%
- herbicidal activity (GALAP (Galium aparine); pyroxasulfone solo 80 g ai/ha): 98%
- herbicidal activity [2]: 95%
- herbicidal activity ([3]; pyroxasulfone solo 15 g ai/ha): 0%
- herbicidal activity ([3]; pyroxasulfone solo 20 g ai/ha): 0%
- herbicidal activity ([3]; pyroxasulfone solo 30 g ai/ha): 20%
- herbicidal activity ([3]; pyroxasulfone solo 60 g ai/ha): 80%
- herbicidal activity ([3]; pyroxasulfone solo 80 g ai/ha): 80%
- herbicidal activity ([3]; pyroxasulfone solo 120 g ai/ha): 90%
- herbicidal activity (STEME (Stellaria media) [4]; pyroxasulfone solo 10 g ai/ha): 75%
- herbicidal activity (STEME (Stellaria media) [4]; pyroxasulfone solo 15 g ai/ha): 98%
- herbicidal activity (STEME (Stellaria media) [4]; pyroxasulfone solo 30 g ai/ha): 98%
- herbicidal activity (AVEFA (Avena fatua) [5]; pyroxasulfone solo 10 g ai/ha): 60%
- herbicidal activity (AVEFA (Avena fatua) [5]; pyroxasulfone solo 15 g ai/ha): 65%
- herbicidal activity (AVEFA (Avena fatua) [5]; pyroxasulfone solo 20 g ai/ha): 75%
- herbicidal activity (AVEFA (Avena fatua) [5]; pyroxasulfone solo 30 g ai/ha): 80%
- herbicidal activity (AVEFA (Avena fatua) [5]; pyroxasulfone solo 40 g ai/ha): 80%
- herbicidal activity (AVEFA (Avena fatua) [5]; pyroxasulfone solo 60 g ai/ha): 95%
- herbicidal activity ([6]; pyroxasulfone solo 10 g ai/ha): 50%
- herbicidal activity ([6]; pyroxasulfone solo 20 g ai/ha): 90%
- herbicidal activity (AVEFA (Avena fatua) [7]; [18]): 50%
- herbicidal activity (AVEFA (Avena fatua) [7]; [19]): 50%
- herbicidal activity ([8]; pyroxasulfone solo 15 g ai/ha): 40%
- herbicidal activity ([8]; pyroxasulfone solo 60 g ai/ha): 90%
- herbicidal activity [9]: 70%
- herbicidal activity [10, 18]: 80%
- herbicidal activity ([10]; pyroxasulfone solo 15 g ai/ha): 85%
- herbicidal activity [10, 19]: 65%
- herbicidal activity ([10]; pyroxasulfone solo 45 g ai/ha): 85%
- herbicidal activity ([10]; pyroxasulfone solo 90 g ai/ha): 95%
- herbicidal activity ([10]; pyroxasulfone solo 120 g ai/ha): 95%
- herbicidal activity ([11]; pyroxasulfone solo 30 g ai/ha): 75%
- herbicidal activity ([11]; pyroxasulfone solo 40 g ai/ha): 75%
- herbicidal activity [12, 18]: 55%
- herbicidal activity ([12]; pyroxasulfone solo 15 g ai/ha): 70%
- herbicidal activity [12, 19]: 55%
- herbicidal activity ([13]; pyroxasulfone solo 10 g ai/ha): 80%
- herbicidal activity ([13]; pyroxasulfone solo 15 g ai/ha): 98%
- herbicidal activity [14]: 25%
- herbicidal activity ([15]; pyroxasulfone solo 15 g ai/ha): 20%
- herbicidal activity ([15]; pyroxasulfone solo 20 g ai/ha): 60%
- herbicidal activity ([15]; pyroxasulfone solo 30 g ai/ha): 85%
- herbicidal activity ([15]; pyroxasulfone solo 40 g ai/ha): 70%
- herbicidal activity ([15]; pyroxasulfone solo 60 g ai/ha): 95%
- herbicidal activity ([15]; pyroxasulfone solo 80 g ai/ha): 75%
- herbicidal activity (STEME (Stellaria media) [16]; [18]): 0%
- herbicidal activity (STEME (Stellaria media) [16]; pyroxasulfone solo 15 g ai/ha): 40%
- herbicidal activity (STEME (Stellaria media) [16]; [19]): 0%
- herbicidal activity (STEME (Stellaria media) [16]; pyroxasulfone solo 45 g ai/ha): 45%
- herbicidal activity (STEME (Stellaria media) [16]; pyroxasulfone solo 60 g ai/ha): 80%
- herbicidal activity ([17]; pyroxasulfone solo 10 g ai/ha): 0%
- herbicidal activity ([17]; pyroxasulfone solo 20 g ai/ha): 30%
- herbicidal activity ([17]; pyroxasulfone solo 30 g ai/ha): 50%
- herbicidal activity ([17]; pyroxasulfone solo 60 g ai/ha): 50%
- herbicidal activity ([17]; pyroxasulfone solo 120 g ai/ha): 98%
